# Experiments:
# [1] = system: Japanese bulrush; assay: Test Example 1: herbicidal activity, application before weed generation under submerged conditions (Table 16, symbol B); assay type: in vivo, Japanese bulrush (Schoenoplectus juncoides); settings: for Herbicidal effect on B: Japanese bulrush (grade 0-5): 320 g/ha applied herbicide
# Outline: (§1)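 Emulsion formulation, water-diluted to set dose, was put onto the flooded surface (4 cm depth, alluvial soil) the same day weeds were sown and 2.5-leaf rice transplanted. After 3 weeks at 25-30 °C under glass, each species was rated 0 (≤5% kill) to 5 (≥90% kill).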
# [2] = system: oval-leafed pondweed; assay: Test Example 1: herbicidal activity, application before weed generation under submerged conditions (Table 16, symbol C); assay type: in vivo, oval-leafed pondweed (Monochoria vaginalis); settings: for Herbicidal effect on C: oval-leafed pondweed (grade 0-5): 320 g/ha applied herbicide
# Outline: as §1
# [3] = system: Japanese bulrush; assay: Test Example 2: herbicidal activity, application during weed generation under submerged conditions (Table 17, symbol B); assay type: in vivo, Japanese bulrush (Schoenoplectus juncoides); settings: application during weed generation, submerged conditions
# Outline: (§2)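 Steps: fill Wagner pots with alluvial soil; add water to give 4 cm depth; sow the species mixed; grow under glass at 25–30° C.; at 1–2 leaves apply water-diluted emulsion formulation to the water surface at a fixed herbicide amount; score after 3 weeks.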
# [4] = system: oval-leafed pondweed; assay: Test Example 2: herbicidal activity, application during weed generation under submerged conditions (Table 17, symbol C); assay type: in vivo, oval-leafed pondweed (Monochoria vaginalis); settings: application during weed generation, submerged conditions
# Outline: as §2
# [5] = system: barnyard grass; assay: Test Example 3: herbicidal effect by foliage application, Wagner pot (Table 18, symbol H); assay type: in vivo, barnyard grass (Echinochloa crus-galli); settings: for herbicidal effect on H: barnyard grass: amount of applied herbicide 320 g/ha
# Outline: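 Plants were sown in alluvial soil held under 0.1–0.5 cm standing water and grown 14 days in a greenhouse at 25–30 °C. An emulsifiable formulation, water-diluted to the set dose, was then sprayed onto the foliage, and effects were scored three weeks later using previously defined criteria.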
# [6] = system: green foxtail; assay: Test Example 4: herbicidal effect by soil treatment (Table 19, symbol G); assay type: in vivo, green foxtail (Setaria viridis); settings: for herbicidal effect on G: green foxtail: amount of applied herbicide 320 g/ha
# Outline: (§3)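 Herbicidal effect was rated 3 weeks after treatment, using the scoring criteria of an earlier test. The compound, formulated as an emulsion and diluted in water to a set herbicide amount, had been sprayed uniformly on soil over freshly sown seeds. Growth took place in a greenhouse at 25° C. to 30° C.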
# [7] = system: barnyard grass; assay: Test Example 4: herbicidal effect by soil treatment (Table 19, symbol H); assay type: in vivo, barnyard grass (Echinochloa crus-galli); settings: for herbicidal effect on H: barnyard grass: amount of applied herbicide 320 g/ha
# Outline: as §3
# [8] = system: blackgrass; assay: Test Example 4: herbicidal effect by soil treatment (Table 19, symbol J); assay type: in vivo, blackgrass (Alopecurus myosuroides); settings: for herbicidal effect on J: blackgrass: amount of applied herbicide 320 g/ha
# Outline: as §3
# [9] = system: velvetleaf; assay: Test Example 4: herbicidal effect by soil treatment (Table 19, symbol M); assay type: in vivo, velvetleaf (Abutilon theophrasti); settings: for herbicidal effect on M: velvetleaf: amount of applied herbicide 320 g/ha
# Outline: as §3
# [10] = system: redroot pigweed; assay: Test Example 4: herbicidal effect by soil treatment (Table 19, symbol N); assay type: in vivo, redroot pigweed (Amaranthus retroflexus); settings: for herbicidal effect on N: redroot pigweed: amount of applied herbicide 320 g/ha
# Outline: as §3
# [11] = system: persian speedwell; assay: Test Example 4: herbicidal effect by soil treatment (Table 19, symbol R); assay type: in vivo, Persian speedwell (Veronica persica); settings: for herbicidal effect on R: persian speedwell: amount of applied herbicide 320 g/ha
# Outline: as §3
# [12] = system: southern crabgrass; assay: Test Example 5: herbicidal effect by foliage application, plastic box (Table 20, symbol F); assay type: in vivo, southern crabgrass (Digitaria ciliaris); settings: foliage application; for F: southern crabgrass, herbicidal effect (criteria 0-5): AAH 320 g/ha, evaluated three weeks after application
# Outline: (§4)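 Foliar spray test: emulsion formulation diluted in water to a set application rate, sprayed onto 14-day-old plants raised in diluvial soil at 25° C to 30° C under glass. Both herbicidal effect and crop effect rated visually three weeks later.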
# [13] = system: green foxtail; assay: Test Example 5: herbicidal effect by foliage application, plastic box (Table 20, symbol G); assay type: in vivo, green foxtail (Setaria viridis); settings: foliage application; for G: green foxtail, herbicidal effect (criteria 0-5): AAH 320 g/ha, evaluated three weeks after application
# Outline: as §4
# [14] = system: blackgrass; assay: Test Example 5: herbicidal effect by foliage application, plastic box (Table 20, symbol J); assay type: in vivo, blackgrass (Alopecurus myosuroides); settings: foliage application; for J: blackgrass, herbicidal effect (criteria 0-5): AAH 320 g/ha, evaluated three weeks after application
# Outline: as §4
# [15] = system: windgrass; assay: Test Example 5: herbicidal effect by foliage application, plastic box (Table 20, symbol L); assay type: in vivo, windgrass (Apera spica-venti); settings: foliage application; for L: windgrass, herbicidal effect (criteria 0-5): AAH 320 g/ha, evaluated three weeks after application
# Outline: as §4
# [16] = system: velvetleaf; assay: Test Example 5: herbicidal effect by foliage application, plastic box (Table 20, symbol M); assay type: in vivo, velvetleaf (Abutilon theophrasti); settings: foliage application; for M: velvetleaf, herbicidal effect (criteria 0-5): AAH 320 g/ha, evaluated three weeks after application
# Outline: as §4
# [17] = system: persian speedwell; assay: Test Example 5: herbicidal effect by foliage application, plastic box (Table 20, symbol R); assay type: in vivo, Persian speedwell (Veronica persica); settings: foliage application; for R: persian speedwell, herbicidal effect (criteria 0-5): AAH 320 g/ha, evaluated three weeks after application
# Outline: as §4
# [18] = amount of applied herbicide 274 g/ha
# [19] = 274 g/ha, three weeks after application
Compound,Herbicidal effect on B: Japanese bulrush (grade 0-5) [1],Herbicidal effect on C: oval-leafed pondweed (grade 0-5) [2],"herbicidal effect rating, B: Japanese bulrush ([3]; AAH 320 g/ha)","herbicidal effect rating, C: oval-leafed pondweed ([4]; AAH 320 g/ha)",herbicidal effect on H: barnyard grass [5],herbicidal effect on G: green foxtail [6],herbicidal effect on H: barnyard grass [7],herbicidal effect on J: blackgrass [8],herbicidal effect on M: velvetleaf [9],herbicidal effect on N: redroot pigweed [10],herbicidal effect on R: persian speedwell [11],"F: southern crabgrass, herbicidal effect (criteria 0-5) [12]","G: green foxtail, herbicidal effect (criteria 0-5) [13]","J: blackgrass, herbicidal effect (criteria 0-5) [14]","L: windgrass, herbicidal effect (criteria 0-5) [15]","M: velvetleaf, herbicidal effect (criteria 0-5) [16]","R: persian speedwell, herbicidal effect (criteria 0-5) [17]",further results
Cc1nn(C)c(=O)c(-c2c(-c3ccc(C#N)cc3)sc3ccc(F)cc23)c1O [2-340],5 (Herbicidal rate of 90% or more (almost completely withered)),4 (Herbicidal rate of 70% or more and less than 90%),4 (Herbicidal rate of 70% or more and less than 90%),3 (Herbicidal rate of 40% or more and less than 70%),5 (Herbicidal rate of 90% or more (almost completely withered)),5 (Herbicidal rate of 90% or more (almost completely withered)),5 (Herbicidal rate of 90% or more (almost completely withered)),3 (Herbicidal rate of 40% or more and less than 70%),5 (Herbicidal rate of 90% or more (almost completely withered)),5 (Herbicidal rate of 90% or more (almost completely withered)),5 (Herbicidal rate of 90% or more (almost completely withered)),5 (Herbicidal rate of 90% or more (almost completely withered)),5 (Herbicidal rate of 90% or more (almost completely withered)),5 (Herbicidal rate of 90% or more (almost completely withered)),4 (Herbicidal rate of 70% or more and less than 90%),5 (Herbicidal rate of 90% or more (almost completely withered)),5 (Herbicidal rate of 90% or more (almost completely withered)),
CCCC(=O)Oc1c(C)nn(C)c(=O)c1-c1c(-c2ccc(F)c(F)c2)sc2ccc(F)cc12 [2-345],4 (Herbicidal rate of 70% or more and less than 90%),3 (Herbicidal rate of 40% or more and less than 70%),5 (Herbicidal rate of 90% or more (almost completely withered)),4 (Herbicidal rate of 70% or more and less than 90%),5 (Herbicidal rate of 90% or more (almost completely withered)),5 (Herbicidal rate of 90% or more (almost completely withered)),4 (Herbicidal rate of 70% or more and less than 90%),0 (Herbicidal rate of 5% or less (almost no effect)),3 (Herbicidal rate of 40% or more and less than 70%),5 (Herbicidal rate of 90% or more (almost completely withered)),5 (Herbicidal rate of 90% or more (almost completely withered)),4 (Herbicidal rate of 70% or more and less than 90%),5 (Herbicidal rate of 90% or more (almost completely withered)),0 (Herbicidal rate of 5% or less (almost no effect)),1 (Herbicidal rate of 5% or more and less than 20%),5 (Herbicidal rate of 90% or more (almost completely withered)),5 (Herbicidal rate of 90% or more (almost completely withered)),
Cc1nn(C)c(=O)c(-c2c(-c3ccc(Cl)cc3F)sc3ccc(F)cc23)c1O [2-348],3 (Herbicidal rate of 40% or more and less than 70%),0 (Herbicidal rate of 5% or less (almost no effect)),2 (Herbicidal rate of 20% or more and less than 40%),0 (Herbicidal rate of 5% or less (almost no effect)),5 (Herbicidal rate of 90% or more (almost completely withered)),4 (Herbicidal rate of 70% or more and less than 90%),3 (Herbicidal rate of 40% or more and less than 70%),0 (Herbicidal rate of 5% or less (almost no effect)),1 (Herbicidal rate of 5% or more and less than 20%),3 (Herbicidal rate of 40% or more and less than 70%),4 (Herbicidal rate of 70% or more and less than 90%),5 (Herbicidal rate of 90% or more (almost completely withered)),5 (Herbicidal rate of 90% or more (almost completely withered)),4 (Herbicidal rate of 70% or more and less than 90%),5 (Herbicidal rate of 90% or more (almost completely withered)),5 (Herbicidal rate of 90% or more (almost completely withered)),5 (Herbicidal rate of 90% or more (almost completely withered)),
COc1ccccc1-c1sc2cc(C)ccc2c1-c1c(O)c(C)nn(C)c1=O [3-049],,,,,,,,,,,,,,,,,,"Herbicidal effect, B: Japanese bulrush [1, 18]: 3 (Herbicidal rate of 40% or more and less than 70%); Herbicidal effect, C: oval-leafed pondweed [2, 18]: 3 (Herbicidal rate of 40% or more and less than 70%); herbicidal effect rating, B: Japanese bulrush ([3]; AAH 274 g/ha): 3 (Herbicidal rate of 40% or more and less than 70%); herbicidal effect rating, C: oval-leafed pondweed ([4]; AAH 274 g/ha): 2 (Herbicidal rate of 20% or more and less than 40%); herbicidal effect on barnyard grass (H) ([5]; 274 g/ha): 5 (Herbicidal rate of 90% or more (almost completely withered)); G: green foxtail, herbicidal effect grade [6, 18]: 3 (Herbicidal rate of 40% or more and less than 70%); H: barnyard grass, herbicidal effect grade [7, 18]: 3 (Herbicidal rate of 40% or more and less than 70%); J: blackgrass, herbicidal effect grade [8, 18]: 3 (Herbicidal rate of 40% or more and less than 70%); M: velvetleaf, herbicidal effect grade [9, 18]: 0 (Herbicidal rate of 5% or less (almost no effect)); N: redroot pigweed, herbicidal effect grade [10, 18]: 4 (Herbicidal rate of 70% or more and less than 90%); R: persian speedwell, herbicidal effect grade [11, 18]: 4 (Herbicidal rate of 70% or more and less than 90%); F: southern crabgrass, herbicidal effect grade [12, 19]: 5 (Herbicidal rate of 90% or more (almost completely withered)); G: green foxtail, herbicidal effect grade [13, 19]: 5 (Herbicidal rate of 90% or more (almost completely withered)); J: blackgrass, herbicidal effect grade [14, 19]: 5 (Herbicidal rate of 90% or more (almost completely withered)); L: windgrass, herbicidal effect grade [15, 19]: 5 (Herbicidal rate of 90% or more (almost completely withered)); M: velvetleaf, herbicidal effect grade [16, 19]: 5 (Herbicidal rate of 90% or more (almost completely withered)); R: persian speedwell, herbicidal effect grade [17, 19]: 5 (Herbicidal rate of 90% or more (almost completely withered))"

# From patent US20230085307A1, “PYRIDAZINONE COMPOUND AND HERBICIDE” (NISSAN CHEMICAL CORPORATION, priority 2019, published 2023)
